The results in this text go back to patent US4504580A, “Antibiotics produced by fermentation of a novel strain of Streptomyces hygroscopicus” (Bristol-Myers Company, priority 1983, dated 1985).

Molecules are shown by their SMILES. ≈ marks a conversion by molar mass, not a printed value.

The test system of test [1] is Pseudomonas aeruginosa A20601. The test is described as follows: MIC, aminoglycoside-resistant P. aeruginosa A20601. The conditions noted are these: Pseudomonas aeruginosa, A20601; Table 9; inactivating enzymes AAC(3)-I, APH(3')-II; Mueller-Hinton agar; read-out: MIC. The class given is cell-based. On the procedure:
(§1) The minimum inhibitory concentrations (MIC) of Bu-2659A, B, C, D and E were determined for a variety of gram-positive and gram-negative bacteria by the serial two-fold agar dilution method using the Steer's multi-inoculating apparatus. The inoculum was standardized as a 10^4 dilution of an overnight culture of the test organisms in Heart Infusion Broth (Difco). […] Reference antibiotics utilized in these tests included commercially available neomycin as well as its components, neomycins B and C [as used herein, the term "neomycin" means the commercial product containing neomycins B and C at an approximate ratio of 7:3], paromomycin [the commercial product containing >90% of paromomycin I and <10% of paromomycin II] and ribostamycin.

The subject of another test is Proteus mirabilis A9906. Kind of test: MIC by serial two-fold agar dilution, P. mirabilis A9906. Type of test: cell-based. The conditions noted are these: Proteus mirabilis, A9906; Table 7; Mueller-Hinton agar; read-out: MIC. In short, it runs like this:
(§2)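 MIC read as the lowest inhibitory concentration on a two-fold agar dilution series. Organisms applied with a Steer's multi-inoculator at a 10^4 dilution of overnight Heart Infusion Broth growth.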

Test [2] concerns Staphylococcus aureus A20239. The test is described as follows: MIC, aminoglycoside-resistant S. aureus A20239. Type of test: cell-based. The conditions noted are these: Staphylococcus aureus, A20239; Table 9; inactivating enzyme APH(3')-I,II; Mueller-Hinton agar; read-out: MIC. On the procedure: as §1
The next test has as its system Escherichia coli NIHJ. The test is described as follows: MIC by serial two-fold agar dilution, E. coli NIHJ. The class given is cell-based. The conditions noted are these: Escherichia coli; Table 7; Mueller-Hinton agar; read-out: MIC. In short, it runs like this: as §2
A general note: In agar dilution the substance is mixed into plates at graded concentrations.

Test [3] concerns E. coli Juhl, K. pneumoniae D-11, P. mirabilis A9906, S. aureus Smith and S. pyogenes A20201. Kind of test: Experimental systemic infection in mice, overall. Type of test: in vivo. The protocol:
(§3) The in vivo activity of Bu-2659A was assessed by experimental systemic infection in mice. The pathogenic bacteria used in the in vivo tests were E. coli Juhl, K. pneumoniae D-11, P. mirabilis A9906, S. aureus Smith and S. pyogenes A20201. Mice were challenged intraperitoneally with approximately 100×LD50 dose of the pathogens in a 5% suspension of hog gastric mucin (American Laboratories, Omaha, Neb.). A single intramuscular treatment with the antibiotic was given immediately after the bacterial challenge. […] Neomycin was comparatively tested as a reference compound. […] In terms of PD50 value Bu-2659A was about one-half as active as neomycin against infections with S. aureus and S. pyogenes.

Test [4] relates to Escherichia coli Juhl. Kind of test: Experimental systemic infection in mice, E. coli Juhl. Type of test: in vivo. The conditions noted are these: Escherichia coli, 96 h, im, single treatment, 4 days, read-out: PD50. The protocol:
as §3

Test [5] deals with Micrococcus luteus PCI 1001. The test is described as follows: MIC by serial two-fold agar dilution, M. luteus PCI 1001. The class given is cell-based. The conditions noted are these: Micrococcus luteus, PCI1001; Table 7; Mueller-Hinton agar; read-out: MIC. An outline of the steps:
as §2

The test system of test [6] is Neisseria meningitidis A21496. The test is described as follows: MIC by serial two-fold agar dilution, N. meningitidis A21496. The conditions noted are these: Neisseria meningitidis, A21496; Table 8; GC medium; read-out: MIC. Type of test: cell-based. On the procedure: as §1
Test [7] has as its system Streptococcus pneumoniae Type I. Kind of test: MIC by serial two-fold agar dilution, S. pneumoniae Type I. The class given is cell-based. The conditions noted are these: Streptococcus pneumoniae; Table 8; GC medium; read-out: MIC. On the procedure: as §1
The test system of the next test is Proteus mirabilis A9554. Kind of test: MIC by serial two-fold agar dilution, P. mirabilis A9554. The class given is cell-based. The conditions noted are these: Proteus mirabilis, A9554; Table 7; Mueller-Hinton agar; read-out: MIC. An outline of the steps: as §2
The test system of the next test is Escherichia coli A20732. Kind of test: MIC, aminoglycoside-resistant E. coli A20732. The conditions noted are these: Escherichia coli, A20732; Table 9; inactivating enzyme ANT(2"); Mueller-Hinton agar; read-out: MIC. The class given is cell-based. The protocol: as §1
In test [8] the test system is Staphylococcus aureus Smith. The test is described as follows: MIC by serial two-fold agar dilution, S. aureus Smith. The class given is cell-based. The conditions noted are these: Staphylococcus aureus; Table 7; Mueller-Hinton agar; read-out: MIC. An outline of the steps:
as §2

Test [9] concerns Pseudomonas aeruginosa A20896. Kind of test: MIC, aminoglycoside-resistant P. aeruginosa A20896. The class given is cell-based. The conditions noted are these: Pseudomonas aeruginosa, A20896; Table 9; inactivating enzyme AAC(3)-II; Mueller-Hinton agar; read-out: MIC. The protocol:
as §1

The test system of test [10] is Staphylococcus aureus 209P. Kind of test: MIC by serial two-fold agar dilution, S. aureus 209P. The class given is cell-based. The conditions noted are these: Staphylococcus aureus, 209P; Table 7; Mueller-Hinton agar; read-out: MIC. An outline of the steps:
as §2

For another test, the system named is Escherichia coli JR88. The test is described as follows: MIC, aminoglycoside-resistant E. coli JR88. The class given is cell-based. The conditions noted are these: Escherichia coli, JR88. In short, it runs like this: as §2
Test [11] concerns Neisseria and Haemophilus species. The test is described as follows: Antibacterial activity (MIC), overall, Neisseria and Haemophilus, Table 8. Type of test: cell-based. The conditions noted are these: compared with neomycin. The protocol:
as §1

In test [12] the test system is Pseudomonas aeruginosa D15. The test is described as follows: MIC by serial two-fold agar dilution, P. aeruginosa D15. The class given is cell-based. The conditions noted are these: Pseudomonas aeruginosa, D15; Table 7; Mueller-Hinton agar; read-out: MIC. In short, it runs like this: as §2
Test [13] concerns Serratia marcescens A20019. The test is described as follows: MIC by serial two-fold agar dilution, S. marcescens A20019. The class given is cell-based. The conditions noted are these: Serratia marcescens, A20019; Table 7; Mueller-Hinton agar; read-out: MIC. An outline of the steps:
as §2

Test [14] concerns Bacillus subtilis PCI 219. The test is described as follows: MIC by serial two-fold agar dilution, B. subtilis PCI 219. Type of test: cell-based. The conditions noted are these: Bacillus subtilis, PCI219; Table 7; Mueller-Hinton agar; read-out: MIC. An outline of the steps:
as §2

The subject of test [15] is Bacillus brevis IFO 12334. Kind of test: MIC, aminoglycoside-resistant B. brevis IFO 12334. The class given is cell-based. The conditions noted are these: Brevibacillus brevis, IFO12334; Table 9; inactivating enzyme ANT (4'); Mueller-Hinton agar; read-out: MIC. On the procedure:
as §1

For test [16], the system named is Escherichia coli Juhl. The test is described as follows: MIC by serial two-fold agar dilution, E. coli Juhl. Type of test: cell-based. The conditions noted are these: Escherichia coli; Table 7; Mueller-Hinton agar; read-out: MIC. An outline of the steps: as §2

For the compound `NC[C@@H]1O[C@H](O[C@H]2[C@@H](O)[C@H](O[C@@H]3[C@@H](O)[C@H](O)C[C@H](N)[C@H]3O[C@H]3O[C@H](CN)[C@@H](O)[C@H](O)[C@H]3N)O[C@@H]2CO)[C@H](N)[C@@H](O)[C@@H]1O` [Bu-2659A, 1-deamino-1-hydroxyneomycin B], the minimum inhibitory concentration (MIC) (in general, the lowest concentration that inhibits growth of the organism) in test [1] turned out to be 6.3 µg/mL (≈ 10.2 µM); in the test on Proteus mirabilis A9906, 0.8 µg/mL (≈ 1.3 µM); in test [2] it was 12.5 µg/mL (≈ 20.3 µM); with Escherichia coli NIHJ, 1.6 µg/mL (≈ 2.6 µM); in [5] it was 3.1 µg/mL (≈ 5.04 µM); in [6], 50 µg/mL (≈ 81.2 µM). The MIC is 25 µg/mL (≈ 40.6 µM) in test [7]; 0.8 µg/mL (≈ 1.3 µM) in the test on Proteus mirabilis A9554; 0.8 µg/mL (≈ 1.3 µM) in the test on Escherichia coli A20732; 1.6 µg/mL (≈ 2.6 µM) in test [8]; above 100 µg/mL in test [9]; 0.8 µg/mL (≈ 1.3 µM) in [10]. Also, the MIC in the test on Escherichia coli JR88 is 1.6 µg/mL (≈ 2.6 µM); in [12], 3.1 µg/mL (≈ 5.04 µM); in test [13], 3.1 µg/mL (≈ 5.04 µM); in test [14], 0.1 µg/mL (≈ 0.162 µM); in [15] it was above 100 µg/mL; in the test with Escherichia coli Juhl [16] it was 3.1 µg/mL (≈ 5.04 µM). For the same compound, the “protection in mice, in words” value in test [3] (five experimental infections) was “excellent protection”. Further, the “in vivo activity relative to neomycin, in terms of PD50” value in [3] (infections with S. aureus and S. pyogenes) is recorded as “about one-half”. The “in vivo activity compared with neomycin, in words” value in test [3] (infections with three gram-negative bacteria) is “comparable to that of neomycin”. The ED50 in the test with Escherichia coli Juhl [4] turned out to be 3.1 mg/kg. Besides, in test [11], the “activity against Neisseria and Haemophilus, in words” value was “more active than neomycin”.
